# Values joined by “and” are separate entries in the source; they are usually repeats but may differ in a detail not shown here. Equal entries are not always repeated. Where two headings read alike, the source gives them in different places.
# Key:
# [1] = target: T1, CYP3A4 (Homo sapiens, UniProt P08684); details: BFC debenzylation activity, same method as in this study; previously reported analogues; cited from earlier work
# T1 construct: The full-length protein was used for assays and the truncated form was used for crystallization; made in house
# Target sequence in this assay (P08684 2-503): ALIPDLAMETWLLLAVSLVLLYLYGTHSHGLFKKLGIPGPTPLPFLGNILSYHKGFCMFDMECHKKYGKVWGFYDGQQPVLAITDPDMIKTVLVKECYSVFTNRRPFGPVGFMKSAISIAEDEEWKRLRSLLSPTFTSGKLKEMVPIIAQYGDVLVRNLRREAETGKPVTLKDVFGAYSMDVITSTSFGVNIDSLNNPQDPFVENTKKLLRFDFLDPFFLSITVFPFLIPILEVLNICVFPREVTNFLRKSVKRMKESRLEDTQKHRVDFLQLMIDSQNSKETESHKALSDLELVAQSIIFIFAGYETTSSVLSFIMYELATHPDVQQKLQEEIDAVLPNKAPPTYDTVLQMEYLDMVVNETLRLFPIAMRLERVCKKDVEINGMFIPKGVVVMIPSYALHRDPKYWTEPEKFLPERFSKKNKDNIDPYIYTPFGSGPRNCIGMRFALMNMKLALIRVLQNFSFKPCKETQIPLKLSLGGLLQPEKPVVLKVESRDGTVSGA
# [2] = target: T1, CYP3A4; assay: H2O2-dependent heme depletion (heme bleaching) assay; details: for Heme Destroyed: 10 mM H2O2, 2 h, relative to ligand-free CYP3A4 = 100%; for kH2O2: rate constant for the H2O2-dependent heme-bleaching reaction, 10 mM H2O2, 16 μM inhibitor
# Description: H2O2-dependent heme depletion assay—Heme bleaching in ligand-free and inhibitor-bound CYP3A4 (1.6 μM) was monitored at 23 °C in 0.1 M phosphate buffer, pH 7.4. After 10 min of preincubation of CYP3A4 with 16 μM inhibitors, heme decay was initiated by the addition of 10 mM H2O2 (final concentration) and monitored at 420 nm for 2 h. The percentage of heme destroyed was calculated relative to that in ligand-free CYP3A4, considered as 100% decay.
# Target sequence in this assay (P08684 whole entry, the tested form may be a part): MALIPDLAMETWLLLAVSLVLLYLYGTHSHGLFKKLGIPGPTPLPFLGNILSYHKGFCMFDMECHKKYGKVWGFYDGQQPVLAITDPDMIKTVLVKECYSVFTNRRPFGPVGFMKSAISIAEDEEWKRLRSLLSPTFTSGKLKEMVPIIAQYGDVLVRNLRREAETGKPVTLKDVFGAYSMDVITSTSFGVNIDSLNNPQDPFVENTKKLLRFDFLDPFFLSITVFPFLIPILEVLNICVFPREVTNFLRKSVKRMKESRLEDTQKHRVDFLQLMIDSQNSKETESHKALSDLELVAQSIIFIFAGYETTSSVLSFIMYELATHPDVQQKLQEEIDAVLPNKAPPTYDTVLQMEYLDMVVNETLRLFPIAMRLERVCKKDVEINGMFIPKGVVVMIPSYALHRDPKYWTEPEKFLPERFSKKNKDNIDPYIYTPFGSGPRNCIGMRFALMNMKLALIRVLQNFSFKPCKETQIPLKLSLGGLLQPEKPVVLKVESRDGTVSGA
# [3] = target: T1, CYP3A4; assay: Stopped-flow kinetics of ligand binding; details: for Percentage of the absorbance change taking place during the fast kinetic phase: ligand-binding reaction; for kfast: rate constant for the fast kinetic phase of the ligand-binding reaction
# Description: Kinetics of Ligand Binding—The kinetics of ligand binding to CYP3A4 were measured at 427 nm in an SX.18MV stopped-flow apparatus (Applied Photophysics, UK), as previously described.
# Target sequence in this assay (P08684 whole entry, the tested form may be a part): as above
# [4] = target: T1, CYP3A4; details: previously reported analogues; cited from earlier work
# Target sequence in this assay (P08684 whole entry, the tested form may be a part): as above
# [5] = target: T1, CYP3A4; assay: Spectral binding titrations (equilibrium ligand binding, type II spectral change); details: for Kd: 23 °C, 0.1 M phosphate pH 7.4, quadratic fits to titration plots, read-out: Ks (spectral dissociation constant); for λmax Ferric: ferric ligand-bound CYP3A4; for ΔAmax: maximal absorbance change (peak-to-trough in difference spectrum) relative to that induced by ritonavir; for A421/417: ratio between absorption maxima of ferric ligand-bound and ligand-free CYP3A4; for λmax Ferrous: ferrous ligand-bound CYP3A4
# Description: Spectral Binding Titrations—Equilibrium ligand binding to CYP3A4 was monitored using a Cary 300 spectrophotometer at 23 °C in 0.1 M phosphate buffer, pH 7.4, supplemented with 20% glycerol and 1 mM dithiothreitol. Inhibitors were dissolved in dimethyl sulfoxide (DMSO) and added to a 2 μM protein solution in small aliquots, with the final solvent concentration of <2%. The spectral dissociation constant (Ks) was determined from quadratic fits to the titration plots.
# Target sequence in this assay (P08684 whole entry, the tested form may be a part): as above
# [6] = target: T1, CYP3A4; assay: Inhibitory potency for the BFC O-debenzylase activity in a soluble reconstituted system; assay type: biochemical; details: for IC50: BFC debenzylase activity, soluble reconstituted system with cytochrome P450 reductase
# Description: Inhibitory Potency Assays—The inhibitory potency for the BFC O-debenzylase activity of CYP3A4 was evaluated fluorometrically in a soluble reconstituted system, and the IC50 values were derived from the [% activity] vs. [inhibitor] plots, as described in detail elsewhere.
# Target sequence in this assay (P08684 2-503): as the sequence (P08684 2-503) above
# [7] = target: T1, CYP3A4; assay: Thermal denaturation (ligand-dependent change in melting temperature); assay type: binding; details: purified CYP3A4 protein solution, pH 7.4, ligand-dependent change in melting temperature of CYP3A4, 1 μM protein, 20 μM ligand
# Description: Thermal Denaturation—Melting curves were recorded in 0.1 M phosphate buffer, pH 7.4, using a Cary 300 spectrophotometer. Protein (1 μM) was mixed with a ligand (20 μM) and incubated for 15 min at 23 °C. Protein denaturation was monitored at 260 nm using a 0.2 °C measurement step, 0.9 °C/min ramp rate, and 50–75 °C temperature range. The denaturation midpoint (melting temperature; Tm) was determined from non-linear fittings to the melting curve, as described earlier.
# Target sequence in this assay (P08684 whole entry, the tested form may be a part): as the sequence (P08684 whole entry, the tested form may be a part) above
# [8] = target: T1, CYP3A4; details: previously reported analogues; read-out: Ks; cited from earlier work
# Target sequence in this assay (P08684 whole entry, the tested form may be a part): as above
# [9] = target: recombinant CYP3A5 (Homo sapiens, UniProt P20815); assay: Inhibitory potency against recombinant CYP3A5; assay type: biochemical; details: read-out: IC50 estimates
# Excerpt: Thus, one optimization strategy would be the R3 enlargement and branching. […] Our analogues lack the backbone hydroxyl as well, but contain much smaller/chemically simpler end-groups.
# recombinant CYP3A5, sequence (P20815 whole entry): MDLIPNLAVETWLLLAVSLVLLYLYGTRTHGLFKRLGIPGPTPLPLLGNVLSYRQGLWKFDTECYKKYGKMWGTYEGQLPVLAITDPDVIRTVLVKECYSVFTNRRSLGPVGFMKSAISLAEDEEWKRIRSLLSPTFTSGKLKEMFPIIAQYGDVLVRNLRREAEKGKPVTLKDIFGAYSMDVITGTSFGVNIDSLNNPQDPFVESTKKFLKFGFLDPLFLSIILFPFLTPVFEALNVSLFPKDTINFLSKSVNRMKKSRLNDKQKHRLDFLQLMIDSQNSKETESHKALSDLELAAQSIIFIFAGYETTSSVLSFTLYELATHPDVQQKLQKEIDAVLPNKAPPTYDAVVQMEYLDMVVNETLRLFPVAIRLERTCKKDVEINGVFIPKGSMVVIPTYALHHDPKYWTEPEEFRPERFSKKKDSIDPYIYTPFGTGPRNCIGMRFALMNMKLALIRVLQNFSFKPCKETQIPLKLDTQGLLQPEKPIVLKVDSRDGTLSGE
Heme Destroyed [2],kH2O2 [2],Percentage of the absorbance change taking place during the fast kinetic phase [3] [%],kfast [3],Kd ([5]; 2 μM protein) [nM],λmax Ferric [5] [nm],ΔAmax [5] [%],A421/417 [5],IC50 [6] [nM],"ΔTm at 15 min, 20 μM [7] [°C]",λmax Ferrous [5] [nm],Structure (SMILES),also measured
18% and 18 ± 2%,0.21 ± 0.03 10^3 × min^−1,36,12.5 ± 1.3 s⁻¹,,,,,,,,"CC(C)(C)OC(=O)N[C@H](CS[C@H](Cc1ccccc1)C(=O)NCCCc1cccnc1)Cc1ccccc1 [Compound 3a, reference compound]",IC50 [1]: 160 nM; ΔTm [4]: 8.1 °C
44 ± 5%,0.70 ± 0.08 10^3 × min^−1,27,13.8 s⁻¹ and 13.8 ± 1.5 s⁻¹,1360 ± 120,421,98,0.99,1600 ± 200,1.9,,CC(C)(C)OC(=O)N[C@H](CS[C@H](Cc1ccccc1)C(=O)NCC(=O)Nc1cccnc1)Cc1ccccc1 [Compound 4],"fold increase in Ks relative to 3a ([5]; relative to 3a): 100 fold; fold increase in IC50 relative to 3a ([6]; BFC O-debenzylase activity, relative to 3a): 10 fold"
39 ± 5%,0.64 ± 0.07 10^3 × min^−1,31,13.2 ± 1.8 s⁻¹,,,,,,,,"CC(C)(C)OC(=O)N[C@H](CS[C@H](Cc1ccccc1)C(=O)NCc1cccnc1)Cc1ccccc1 [Compound 4b, reference compound]",IC50 [1]: 1190 nM; Kd [8]: 63 nM
37% and 37 ± 4%,0.60 ± 0.08 10^3 × min^−1,32,11.4 ± 1.4 s⁻¹,,,,,,,,"CC(C)(C)OC(=O)N[C@H](CS[C@H](Cc1ccccc1)C(=O)NCCc1cccnc1)Cc1ccccc1 [Compound 4f, reference compound]",ΔTm [4]: 4.2 °C
22 ± 3%,0.32 ± 0.03 10^3 × min^−1,28,13.8 ± 2.0 s⁻¹,,,,,,,,"CC(C)(C)OC(=O)N[C@H](CS[C@@H](Cc1ccccc1)C(=O)NCCc1cccnc1)Cc1ccccc1 [Compound 4h, reference compound]",
22% and 22 ± 3%,0.31 ± 0.04 10^3 × min^−1,34,22.5 ± 3.1 s⁻¹,34 ± 5,422,105,1.07,310 ± 30,5.2,443,CC(C)(C)OC(=O)N[C@H](CS[C@H](Cc1ccccc1)C(=O)NCc1ccncc1)Cc1ccccc1 [Compound 5a],fold improvement in binding affinity relative to 4f ([5]; relative to 4f): 2.2 fold; fold improvement in inhibitory potency relative to 4f ([6]; relative to 4f): 1.3 fold
22% and 22 ± 2%,0.31 ± 0.03 10^3 × min^−1,31,18.2 ± 1.8 s⁻¹,14 ± 2,423,126,1.06,160 ± 20,5,443,CC(C)(C)OC(=O)N[C@H](CS[C@H](Cc1ccccc1)C(=O)NCCc1ccncc1)Cc1ccccc1 [Compound 5b],IC50 [9]: 180 to 200 nM
39 ± 4%,0.66 ± 0.10 10^3 × min^−1,26,10.3 s⁻¹ and 10.3 ± 1.2 s⁻¹,120 ± 10,421,96,1.03,600 ± 40,3.6,443,O=C(Cc1cccnc1)N[C@H](CS[C@H](Cc1ccccc1)C(=O)NCc1cccnc1)Cc1ccccc1 [Compound 8a],
32 ± 3%,0.44 ± 0.06 10^3 × min^−1,24,5.6 s⁻¹ and 5.6 ± 0.6 s⁻¹,53 ± 9,421,109,1.03,820 ± 90,4.2,443,O=C(CCc1cccnc1)N[C@H](CS[C@H](Cc1ccccc1)C(=O)NCCc1cccnc1)Cc1ccccc1 [Compound 8b],increase in Ks relative to 4f ([5]; relative to 4f): ~ 20%; increase in IC50 relative to 4f ([6]; relative to 4f): ~ 20%
24 ± 2%,0.32 ± 0.03 10^3 × min^−1,,,,,,,210 ± 30,,,O=C(CCc1cccnc1)N[C@H](CS[C@@H](Cc1ccccc1)C(=O)NCCc1cccnc1)Cc1ccccc1 [Compound 8c],IC50 [9]: 180 to 200 nM
13 ± 2%,0.17 ± 0.02 10^3 × min^−1,30,15.4 ± 1.8 s⁻¹,8 ± 1,422,111,1.11,150 ± 20,7.2,444,O=C(N[C@H](CS[C@H](Cc1ccccc1)C(=O)NCCCc1cccnc1)Cc1ccccc1)c1cccnc1 [Compound 10a],IC50 [9]: 180 to 200 nM; improvement in heme protection relative to 3a ([2]; relative to the Boc-containing 3a): 5%
19 ± 3%,0.24 ± 0.03 10^3 × min^−1,29,13.7 ± 1.5 s⁻¹,9 ± 1,422,110,1.10,,7.3,443,O=C(CNC(=O)c1cccnc1)N[C@H](CS[C@H](Cc1ccccc1)C(=O)NCCCc1cccnc1)Cc1ccccc1 [Compound 10b],"Kd ([5]; human, purified CYP3A4 protein solution, pH 7.4, 2 μM protein): 8 to 9 nM; IC50 ([6]; human, probe BFC (O-debenzylation)): 210 ± 20 nM"

# Reference: article PMC9266530 (International Journal of Molecular Sciences, 2022)
